In patent US5604262A, “Topical antimicrobial agents” (Research Corporation Technologies, Inc., priority 1995, dated 1997):
Converted amounts (≈) assume the structure as drawn.

Assays:
[1] = tested on: Candia utilis ATCC 9226; experiment: MIC by two-fold serial broth dilution; format: cell-based, Candida utilis; settings: C. utilis; for MIC: Williopsis jadinii, ATCC9226, 48 h, malt extract broth, two days, turbidity OD 660 nm
Description: (§1) The microorganisms tested were from the American Type Culture Collection (Rockville, Md.). They are Bacillus subtilis ATCC 9372, Brevibacterium ammoniagenes ATCC 6872, Staphylococcus aureus ATCC 12598, Streptococus mutans ATCC 25175, Propionibacterium acnes ATCC 11827, Pseudimonas aeruginosa ATCC 10145, Enterobacter aerogenes ATCC 13048, Eschericia coli ATCC 9637, Proteus vulgaris ATCC […], Saccharomyces cerevisiae ATCC 7754, Candida utilis ATCC 9226, Pityrosporum ovale ATCC 14521, Penicillium chrysogenum ATCC 10106 and Trichophyton mentagrophytes ATCC 18748.
(§2) The bacterial culture media except for S. mutans was 0.8% nutrient broth (BBL), 0.5% yeast Extract (Difco) and 0.1% glucose (NYG broth). S. mutans was cultured in 3.7% brain heart infixsion broth (Difco). All fungi, except P. ovale and T. mentagrophytes were cultured in a 2.5% malt extract broth (BBL). P. ovale was cultured in 1% bactopeptone (Difco), 0.5% yeast extract, 1% glucose and 0.1% corn oil. For T. mentagrophytes the culture media was 1% bactopeptone and 4% glucose.
(§3) Freeze dried samples were prepared for testing as follows. B. subtilis, S. cerevisiae, C. utilis, and P. ovale, were shake-cultured for two days at 30° C. P. chrysogenum and T. mentagrophytes were shake-cultured for 5 days at 30° C. B. ammoniagenes and E. aerogenes were stationarily cultured at 30° C. S. aureus, S. mutans, P. acnes, P. aeruginosa, E. coli and P. vulgaris were stationarily cultured at 37° C.
(§4) The minimum inhibitory concentration (MIC) of the 3-alken-2-ones (compounds 1-4, 6-8) and 3,13-tetradecadien-2-one (compound 5) was performed using a two-fold serial broth dilution. Each test compound was dissolved in DMF and 30 μL of this sample was dissolved in 3 mL of the applicable medium. A 30 μL sample of the previously described culture of each microorganism was added to the various medium solutions. After two days, the cultures of B. subtilis, S. cerevisiae, C. utilis B. ammoniagenes, E. aerogenes, S. aureus, S. mutans, P. acnes, P. aeruginosa, E. coli and P. vulgaris were examined for turbidity (OD at 660 nm). The fungi, P. ovale, P. chrysogenum and T. mentagrophytes, were examined visually for growth at 3 days (P. ovale) and 5 days (P. chrysogenum and T. mentagrophytes). The MIC was determined as the lowest concentration for each compound that no growth was observed. The highest concentration used in these tests was 800 μg/mL.

[2] = tested on: Trichophyton mentagrophytes ATCC 18748; experiment: MIC by two-fold serial broth dilution; format: cell-based; settings: ATCC18748, 120 h, T. mentagrophytes, bactopeptone/glucose, 5 days, visual
Description: as §1, §2, §3, §4

[3] = tested on: Penicillium chrysogenum ATCC 10106; experiment: MIC by two-fold serial broth dilution; format: cell-based; settings: P. chrysogenum; for MIC: Penicillium chrysogenum, ATCC10106, 120 h, malt extract broth, 5 days, visual
Description: as §1, §2, §3, §4

[4] = tested on: Saccharomyces cerevisiae ATCC 7754; experiment: MIC by two-fold serial broth dilution; format: cell-based; settings: S. cerevisiae; for MIC: Saccharomyces cerevisiae, ATCC7754, 48 h, malt extract broth, two days, turbidity OD 660 nm
Description: as §1, §2, §3, §4

[5] = tested on: Enterobacter aerogenes ATCC 13048; experiment: MIC by two-fold serial broth dilution; format: cell-based; settings: E. aerogenes; for MIC: Klebsiella aerogenes, ATCC13048, 48 h, NYG broth, two days, turbidity OD 660 nm
Description: as §1, §2, §3, §4

[6] = tested on: Propionibacterium acnes ATCC 11827; experiment: MIC by two-fold serial broth dilution; format: cell-based; settings: P. acnes; for MIC: Cutibacterium acnes, ATCC11827, 48 h, NYG broth, two days, turbidity OD 660 nm
Description: as §1, §2, §3, §4

[7] = tested on: Proteus vulgaris ATCC 133315; experiment: MIC by two-fold serial broth dilution; format: cell-based; settings: ATCC133315, 48 h, P. vulgaris, NYG broth, two days, turbidity OD 660 nm
Description: as §1, §2, §3, §4

[8] = tested on: Staphylococcus aureus ATCC 12598; experiment: MIC by two-fold serial broth dilution; format: cell-based; settings: S. aureus; for MIC: Staphylococcus aureus, ATCC12598, 48 h, NYG broth, two days, turbidity OD 660 nm
Description: as §1, §2, §3, §4

[9] = tested on: Brevibacterium ammoniagenes ATCC 6872; experiment: MIC by two-fold serial broth dilution; format: cell-based; settings: B. ammoniagenes; for MIC: Corynebacterium ammoniagenes, ATCC6872, 48 h, NYG broth, two days, turbidity OD 660 nm
Description: as §1, §2, §3, §4

[10] = tested on: Pseudimonas aeruginosa ATCC 10145; experiment: MIC by two-fold serial broth dilution; format: cell-based; settings: P. aeruginosa; for MIC: Pseudomonas aeruginosa, ATCC10145, 48 h, NYG broth, two days, turbidity OD 660 nm
Description: as §1, §2, §3, §4

[11] = tested on: Eschericia coli ATCC 9637; experiment: MIC by two-fold serial broth dilution; format: cell-based; settings: E. coli; for MIC: Escherichia coli, ATCC9637, 48 h, NYG broth, two days, turbidity OD 660 nm
Description: as §1, §2, §3, §4

[12] = tested on: Bacillus subtilis ATCC 9372; experiment: MIC by two-fold serial broth dilution; format: cell-based; settings: B. subtilis; for MIC: Bacillus subtilis, ATCC9372, 48 h, NYG broth, two days, turbidity OD 660 nm
Description: as §1, §2, §3, §4

[13] = tested on: Pityrosporum ovale ATCC 14521; experiment: MIC by two-fold serial broth dilution; format: cell-based; settings: P. ovale; for MIC: 72 h, bactopeptone/yeast extract/glucose/corn oil, 3 days, visual
Description: as §1, §2, §3, §4

[14] = tested on: Streptococus mutans ATCC 25175; experiment: MIC by two-fold serial broth dilution; format: cell-based; settings: S. mutans; for MIC: Streptococcus mutans, ATCC25175, 48 h, brain heart infusion broth, two days, turbidity OD 660 nm
Description: as §1, §2, §3, §4

[15] = tested on: bacteria and fungi in the test, except S. mutans and P. acnes; experiment: MIC test, all bacteria and fungi except S. mutans and P. acnes; format: cell-based; settings: all of the bacteria and fungi in the test
Description: as §1, §2
Freeze dried samples were prepared for testing as follows. […]
The minimum inhibitory concentration (MIC) of the 3-alken-2-ones (compounds 1-4, 6-8) and 3,13-tetradecadien-2-one (compound 5) was performed using a two-fold serial broth dilution. […] The MIC was determined as the lowest concentration for each compound that no growth was observed. […]

[16] = tested on: Pr. acnes; settings: Kubo et al. 1994; cited from earlier work

| Compound | MIC [1] | MIC [2] | MIC [3] | MIC [4] | MIC [5] | MIC [6] | MIC [7] | MIC [8] | MIC [9] | MIC [10] | MIC [11] | MIC [12] | MIC [13] | MIC [14] | activity against Pr. acnes (in words) [16] | also measured |
| --- | --- | --- | --- | --- | --- | --- | --- | --- | --- | --- | --- | --- | --- | --- | --- | --- |
| CCCCCCC/C=C/C(C)=O [Compound 1, (E)-3-Undecen-2-one] | 50 µg/mL (≈ 297 µM) | 100 µg/mL (≈ 594 µM) | 100 µg/mL (≈ 594 µM) | 800 µg/mL (≈ 4750 µM) | > 800 µg/mL | 50 µg/mL (≈ 297 µM) | 50 µg/mL (≈ 297 µM) | 200 µg/mL (≈ 1190 µM) | 200 µg/mL (≈ 1190 µM) | > 800 µg/mL | > 800 µg/mL | 100 µg/mL (≈ 594 µM) | 100 µg/mL (≈ 594 µM) | 100 µg/mL (≈ 594 µM) |  |  |
| CCCCCCCCC/C=C/C(C)=O [Compound 3, (E)-3-Tridecen-2-one] | > 800 µg/mL | 25 µg/mL (≈ 127 µM) | 800 µg/mL (≈ 4070 µM) | > 800 µg/mL | > 800 µg/mL | 12.5 µg/mL (≈ 63.7 µM) | 800 µg/mL (≈ 4070 µM) | 50 µg/mL (≈ 255 µM) | 100 µg/mL (≈ 509 µM) | > 800 µg/mL | > 800 µg/mL | 100 µg/mL (≈ 509 µM) | 100 µg/mL (≈ 509 µM) | 25 µg/mL (≈ 127 µM) |  | activity (in words) [1]: no activity; activity (in words) [3]: Weak activity; activity (in words) [4]: no activity; activity (in words) [5]: not active; activity (in words) [6]: showed activity; activity (in words) [8]: showed activity; activity (in words) [9]: showed activity; activity (in words) [10]: not active; activity (in words) [11]: not active; activity (in words) [12]: showed activity; activity (in words) [13]: moderate inhibition; activity (in words) [14]: showed activity |
| CCCCCCCCCCC/C=C/C(C)=O [Compound 6, (E)-3-Pentadecen-2-one] | > 800 µg/mL | 800 µg/mL (≈ 3570 µM) | > 800 µg/mL | > 800 µg/mL | > 800 µg/mL | 6.25 µg/mL (≈ 27.9 µM) | > 800 µg/mL | > 800 µg/mL | > 800 µg/mL | > 800 µg/mL | > 800 µg/mL | > 800 µg/mL | 400 µg/mL (≈ 1780 µM) | 200 µg/mL (≈ 891 µM) |  |  |
| CCCCCCCCCCCCC/C=C/C(C)=O [Compound 8, (E)-3-Heptadecen-2-one] | > 800 µg/mL | > 800 µg/mL | > 800 µg/mL | > 800 µg/mL | > 800 µg/mL | 3.13 µg/mL (≈ 12.4 µM) | > 800 µg/mL | > 800 µg/mL | > 800 µg/mL | > 800 µg/mL | > 800 µg/mL | > 800 µg/mL | > 800 µg/mL | 800 µg/mL (≈ 3170 µM) |  | activity (in words) [6]: strong activity; activity (in words) [15]: inactive |
| CC(C)=CCCC(C)=CCCC(C)=CCCC(C)O (centres unmarked) [farnesyl acetol] |  |  |  |  |  |  |  |  |  |  |  |  |  |  | exhibited activity |  |
| CC(C)=CCCC(C)=CCCC(C)=CCO [farnesol] |  |  |  |  |  |  |  |  |  |  |  |  |  |  | exhibited activity |  |
| CCCCCCCC/C=C/C(C)=O [Compound 2, (E)-3-Dodecen-2-one] | 400 µg/mL (≈ 2190 µM) | 100 µg/mL (≈ 549 µM) | 100 µg/mL (≈ 549 µM) | 800 µg/mL (≈ 4390 µM) | > 800 µg/mL | 25 µg/mL (≈ 137 µM) | 50 µg/mL (≈ 274 µM) | 100 µg/mL (≈ 549 µM) | 100 µg/mL (≈ 549 µM) | > 800 µg/mL | > 800 µg/mL | 100 µg/mL (≈ 549 µM) | 100 µg/mL (≈ 549 µM) | 50 µg/mL (≈ 274 µM) |  |  |
| CC(C)=CCCC(C)=CCCC(C)O (centres unmarked) [geranylacetol] |  |  |  |  |  |  |  |  |  |  |  |  |  |  | exhibited activity |  |
| C=CCCCCCCCC/C=C/C(C)=O [Compound 5, (E)-3,13-Tetradecadien-2-one] | > 800 µg/mL | 12.5 µg/mL (≈ 60 µM) | 800 µg/mL (≈ 3840 µM) | > 800 µg/mL | > 800 µg/mL | 12.5 µg/mL (≈ 60 µM) | > 800 µg/mL | > 800 µg/mL | > 800 µg/mL | > 800 µg/mL | > 800 µg/mL | > 800 µg/mL | 200 µg/mL (≈ 960 µM) | 25 µg/mL (≈ 120 µM) |  |  |
| CC(=O)CCC=C(C)CCC=C(C)CCC=C(C)C [farnesylacetone] |  |  |  |  |  |  |  |  |  |  |  |  |  |  | inactive |  |
| CCCCCCCCCC/C=C/C(C)=O [Compound 4, (E)-3-Tetradecen-2-one] | > 800 µg/mL | 12.5 µg/mL (≈ 59.4 µM) | 800 µg/mL (≈ 3800 µM) | > 800 µg/mL | > 800 µg/mL | 12.5 µg/mL (≈ 59.4 µM) | > 800 µg/mL | > 800 µg/mL | > 800 µg/mL | > 800 µg/mL | > 800 µg/mL | > 800 µg/mL | 100 µg/mL (≈ 475 µM) | 25 µg/mL (≈ 119 µM) |  | activity (in words) [1]: no activity; activity (in words) [3]: Weak activity; activity (in words) [4]: no activity; activity (in words) [5]: not active; activity (in words) [6]: showed activity; activity (in words) [10]: not active; activity (in words) [11]: not active; activity (in words) [13]: moderate inhibition; activity (in words) [14]: showed activity |
